In patent publication US7569607B2, “Spider esters in personal care applications” (SurfaTech Corporation, priority 2005, dated 2009):

Assay: Sun Screen Solubility (appearance of sunscreen dissolved in ester)
Assay type: physicochemical
Settings: for Age Appearance: after 48 hours at room temperature, 24 hours in refrigerator (37° F.) and 48 hours at room temperature; for Initial Appearance: solvent ester not named

SMILES	Age Appearance (1% weight sunscreen)	Initial Appearance (1% weight sunscreen)	Age Appearance (3% weight sunscreen)	Initial Appearance (3% weight sunscreen)
COc1ccc(C(=O)c2ccccc2)c(O)c1 [Benzophenone 3]	Very Slight Haze^(2)	Clear	Very Slight Haze^(2)	Clear
CCCCC(CC)COC(=O)C=Cc1ccc(OC)cc1 (stereo not drawn) [Octylmethoxyciminate]	Clear	Clear	–	–
